Experimental data reported in ChEMBL document CHEMBL5352436, “Triterpenoid pyrazines and pyridines - Synthesis, cytotoxicity, mechanism of action, preparation of prodrugs” (Eur J Med Chem, 2022).

Columns and labels:
[1] = Cytotoxicity against human HCT116-p53-null cells assessed as reduction in cell viability incubated for 72 hrs by MTS assay; format: functional, cell-based
[2] = Cytotoxicity against human MRC5 cells assessed as reduction in cell viability incubated for 72 hrs by MTS assay; format: toxicity, cell-based
[3] = Cytotoxicity against human BJ cells assessed as reduction in cell viability incubated for 72 hrs by MTS assay; format: toxicity, cell-based
[4] = tested on: U2OS; assay: Cytotoxicity against human U2OS cells assessed as reduction in cell viability incubated for 72 hrs by MTS assay; format: functional, cell-based
[5] = Cytotoxicity against human K562-Tax cells assessed as reduction in cell viability incubated for 72 hrs by MTS assay; format: functional, cell-based
[6] = tested on: CEM-DNR; assay: Cytotoxicity against human CEM-DNR cells assessed as reduction in cell viability incubated for 72 hrs by MTS assay; format: functional, cell-based
[7] = tested on: CCRF-CEM; assay: Cytotoxicity against human CCRF-CEM cells assessed as reduction in cell viability incubated for 72 hrs by MTS assay; format: functional, cell-based
[8] = tested on: A549; assay: Cytotoxicity against human A549 cells assessed as reduction in cell viability incubated for 72 hrs by MTS assay; format: functional, cell-based; settings: A549, 72 h
[9] = tested on: K562; assay: Cytotoxicity against human K562 cells assessed as reduction in cell viability incubated for 72 hrs by MTS assay; format: functional, cell-based; settings: K562, 72 h
[10] = tested on: HCT-116; assay: Cytotoxicity against human HCT-116 cells assessed as reduction in cell viability incubated for 72 hrs by MTS assay; format: functional, cell-based; settings: HCT-116, 72 h

Row | Structure (SMILES) | IC50 [1] [µM] | IC50 at 72 h [2] [µM] | IC50 at 72 h [3] [µM] | IC50 [4] [µM] | IC50 [5] [µM] | IC50 [6] [µM] | IC50 [7] [µM] | IC50 [8] [µM] | IC50 [9] [µM] | IC50 [10] [µM]
1 | CC(C)[C@@H]1CC[C@]2(C(=O)O)CC[C@]3(C)[C@H](CC[C@@H]4[C@@]5(C)CCC(=O)C(C)(C)[C@@H]5CC[C@]43C)[C@@H]12 [DIHYDROBETULONIC ACID] | 36 | > 50 | > 50 | 27 | 11 | 48 | 6.3 | – | – | –
2 | CC1(C)CC[C@]2(C(=O)O)CC[C@]3(C)C(=CC[C@@H]4[C@@]5(C)Cc6cccnc6C(C)(C)[C@@H]5CC[C@]43C)[C@@H]2C1 | > 50 | > 50 | > 50 | > 50 | > 50 | > 50 | 39 | > 50 | 13 | > 50
3 | C=C(C)[C@@H]1CC[C@]2(C(=O)O)CC[C@]3(C)[C@H](CC[C@@H]4[C@@]5(C)CCC(=O)C(C)(C)[C@@H]5CC[C@]43C)[C@@H]12 [BETUNOLIC ACID] | 49 | – | 39 | – | 15 | 11 | – | – | – | –
4 | CC1(C)CC[C@]23CC[C@]4(C)[C@H](CC[C@@H]5[C@@]6(C)Cc7cccnc7C(C)(C)[C@@H]6CC[C@]54C)[C@H]2[C@H]1OC3 | > 50 | > 50 | > 50 | > 50 | > 50 | > 50 | > 50 | > 50 | > 50 | > 50
5 | C#CCOC(=O)[C@]12CC[C@@H](C(=C)C)[C@@H]1[C@H]1CC[C@@H]3[C@@]4(C)CC[C@H](O)C(C)(C)[C@@H]4CC[C@@]3(C)[C@]1(C)CC2 | 31 | 26 | 32 | 31 | 36 | 40 | 24 | 43 | 43 | 33
6 | CC1(C)CC[C@]23CC[C@]4(C)[C@H](CC[C@@H]5[C@@]6(C)Cc7nccnc7C(C)(C)[C@@H]6CC[C@]54C)[C@H]2[C@H]1OC3 | > 50 | > 50 | > 50 | > 50 | > 50 | > 50 | > 50 | > 50 | > 50 | > 50
7 | C[C@H]1[C@H](C)CC[C@]2(C(=O)O)CC[C@]3(C)C(=CC[C@@H]4[C@@]5(C)Cc6cccnc6C(C)(C)[C@@H]5CC[C@]43C)[C@H]12 | > 50 | > 50 | > 50 | > 50 | 47 | 40 | 38 | > 50 | 32 | > 50
8 | C[C@H]1[C@H](C)CC[C@]2(C(=O)O)CC[C@]3(C)C(=CC[C@@H]4[C@@]5(C)Cc6nccnc6C(C)(C)[C@]5(C)CC[C@]43C)[C@H]12 | > 50 | > 50 | > 50 | > 50 | 44 | 17 | 19 | > 50 | > 50 | 50
9 | CC1(C)CC[C@]2(C(=O)O)CC[C@]3(C)C(=CC[C@@H]4[C@@]5(C)Cc6nccnc6C(C)(C)[C@@H]5CC[C@]43C)[C@@H]2C1 | > 50 | > 50 | > 50 | > 50 | 34 | 14 | 18 | 50 | > 50 | 50
10 | C=C(C)[C@@H]1CC[C@]2(C(=O)OCc3oc(=O)oc3C)CC[C@]3(C)[C@H](CC[C@@H]4[C@@]5(C)Cc6nccnc6C(C)(C)[C@@H]5CC[C@]43C)[C@@H]12 | 49 | > 50 | > 50 | 45 | 13 | 0.49 | 3.6 | 10 | > 50 | 40
11 | C[C@H]1[C@H](C)CC[C@]2(C(=O)O)CC[C@]3(C)C(=CC[C@@H]4[C@@]5(C)CCC(=O)C(C)(C)[C@@H]5CC[C@]43C)[C@H]12 [URSONIC ACID] | > 50 | > 50 | > 50 | > 50 | 27 | 19 | 16 | 50 | > 50 | 47
12 | CC1(C)C=C2[C@H]3CC[C@@H]4[C@@]5(C)Cc6cccnc6C(C)(C)[C@@H]5CC[C@@]4(C)[C@]3(C)CC[C@@]2(C(=O)O)CC1 | > 50 | > 50 | > 50 | > 50 | 15 | 14 | 8 | > 50 | > 50 | 47
13 | Cc1oc(=O)oc1COC(=O)[C@]12CC[C@@H](C(C)C)[C@@H]1[C@H]1CC[C@@H]3[C@@]4(C)Cc5nccnc5C(C)(C)[C@@H]4CC[C@@]3(C)[C@]1(C)CC2 | 44 | > 50 | > 50 | 40 | 12 | 50 | 17 | 41 | 0.026 | > 50
14 | CC1(C)CC[C@]23CC[C@]4(C)[C@H](CC[C@@H]5[C@@]6(C)CCC(=O)C(C)(C)[C@@H]6CC[C@]54C)[C@H]2[C@H]1OC3 | > 50 | > 50 | > 50 | > 50 | > 50 | > 50 | > 50 | > 50 | > 50 | > 50
15 | C#CCOC(=O)[C@]12CC[C@@H](C(=C)C=O)[C@@H]1[C@H]1CC[C@@H]3[C@@]4(C)CC[C@H](O)C(C)(C)[C@@H]4CC[C@@]3(C)[C@]1(C)CC2 | 1.5 | 1.7 | 7.1 | 1.6 | 1.3 | 1.4 | 0.88 | 1.3 | 1.8 | 1.7
16 | CC1(C)CC[C@]2(C(=O)O)CC[C@]3(C)C(=CC[C@@H]4[C@@]5(C)CCC(=O)C(C)(C)[C@@H]5CC[C@]43C)[C@@H]2C1 [OLEANONIC ACID] | > 50 | > 50 | > 50 | – | 21 | 17 | 9.5 | – | > 50 | –
17 | CC1=CC[C@]2(C(=O)O)CC[C@]3(C)[C@H](CC[C@@H]4[C@@]5(C)Cc6nccnc6C(C)(C)[C@@H]5CC[C@]43C)[C@H]2[C@@H]1C | 50 | > 50 | > 50 | 46 | 10 | 10 | 7.2 | 44 | 18 | 48
18 | Cc1oc(=O)oc1COC(=O)[C@]12CC[C@@H](C(C)C)[C@@H]1[C@H]1CC[C@@H]3[C@@]4(C)Cc5cccnc5C(C)(C)[C@@H]4CC[C@@]3(C)[C@]1(C)CC2 | > 50 | > 50 | > 50 | > 50 | > 50 | 50 | 46 | > 50 | 0.043 | > 50
19 | CC1=CC[C@]2(C(=O)O)CC[C@]3(C)C(=CC[C@@H]4[C@@]5(C)Cc6cccnc6C(C)(C)[C@@H]5CC[C@]43C)[C@H]2[C@@H]1C | 34 | > 50 | > 50 | 35 | 13 | 11 | 6.3 | 20 | 12 | 34
20 | C=C(C)[C@@H]1CC[C@]2(C(=O)OCc3oc(=O)oc3C)CC[C@]3(C)[C@H](CC[C@@H]4[C@@]5(C)Cc6cccnc6C(C)(C)[C@@H]5CC[C@]43C)[C@@H]12 | > 50 | > 50 | > 50 | > 50 | 49 | 48 | 35 | 50 | 0.037 | > 50
21 | CC1(C)C=C2[C@H]3CC[C@@H]4[C@@]5(C)CCC(=O)C(C)(C)[C@@H]5CC[C@@]4(C)[C@]3(C)CC[C@@]2(C(=O)O)CC1 [MORONIC ACID] | > 50 | > 50 | > 50 | > 50 | 21 | 17 | 17 | 47 | > 50 | 45
22 | CC1=CC[C@]2(C(=O)O)CC[C@]3(C)[C@H](CC[C@@H]4[C@@]5(C)CCC(=O)C(C)(C)[C@@H]5CC[C@]43C)[C@H]2[C@@H]1C | 35 | 33 | 35 | 24 | 28 | 11 | 6.5 | 24 | 8.5 | 32
